Series [1] has as its target gel-like mucins from the abdominal cavity of patients with clinical peritoneal pseudomyxoma.
Series [2] has as its target mucus from mucinous appendiceal adenocarcinoma (clinical source).
The target in series [3] is mucus from mucinous ovarian cancer (clinical source).
For series [4], the system named is mucins after mucus formation. Particulars: background statement; cited from earlier work.
Series [5] concerns gel-like mucins from the abdominal cavity of patients with clinical peritoneal pseudomyxoma. Description: Example 1: degradation of gel-like mucins by EatA, visual/pipette observation. In kind it is biochemical, human. Particulars: about 80 μg enzyme, 0.30 g mucins, 500 ul, 37° C., 3 h. The text has this: (§1) Since mucins of different origins and mucins associated with the mucus-related disease have different expression patterns and post-translational modifications, different mucins of clinical pathological origin and mixtures thereof are used in the present application. Preferably, mucins of clinical peritoneal pseudomyxoma origin are used. In the present application, firstly, gel-like mucins from the abdominal cavity of patients with clinical peritoneal pseudomyxoma are collected, after protein precipitation with 30% to 100% ammonium sulfate, cells and tissue fragments, adipose tissue that possibly doped in the collection process of mucins are selected and removed, and then dialyzed and filtered through a 100 KDa dialysis bag. Through the use of sulfate detection test paper, the sulfate concentration in the dialysate and the inner side of the dialysis bag is confirmed. When the sulfate concentration is less than 200 mg/L, the dialysis is terminated and gel-like mucins can be seen. This sample is collected and used as the substrate for in vitro tests to examine the degradation ability of serine protease EatA on mucins. Some examples used mucins removed from the abdominal cavity of clinical patients without purification. […]

Series [6] concerns gel-like mucins. Kind of series: Example 2: mass loss of gel-like mucins, EatA versus bromelain. The note with it: 0.10 g mucins, 500 uL PBS, 37° C., 6 h. Format: biochemical, human.
Description: as §1

For series [7], the system named is gel-like mucins. Description: Example 3: temperature, pH and time dependence of mucin degradation. Format: biochemical, human. The text has this: Since mucins of different origins and mucins associated with the mucus-related disease have different expression patterns and post-translational modifications, different mucins of clinical pathological origin and mixtures thereof are used in the present application. Preferably, mucins of clinical peritoneal pseudomyxoma origin are used. In the present application, firstly, gel-like mucins from the abdominal cavity of patients with clinical peritoneal pseudomyxoma are collected, after protein precipitation with 30% to 100% ammonium sulfate, cells and tissue fragments, adipose tissue that possibly doped in the collection process of mucins are selected and removed, and then dialyzed and filtered through a 100 KDa dialysis bag. Through the use of sulfate detection test paper, the sulfate concentration in the dialysate and the inner side of the dialysis bag is confirmed. When the sulfate concentration is less than 200 mg/L, the dialysis is terminated and gel-like mucins can be seen. This sample is collected and used as the substrate for in vitro tests to examine the degradation ability of serine protease EatA on mucins. Some examples used mucins removed from the abdominal cavity of clinical patients without purification.
During the experiment, 0.10 g of gel-like mucins was accurately weighed for each single reaction, 20 μg of aminoprotease EatA was added, the reaction was performed in 500 uL of solution system, and the weighing method for the remaining gel-like mucins was the same as that in Example 2. The control group was performed under the same conditions except that the serine protease EatA was not added, and three reactions were set in each group as statistical replicates. Due to the hydrating nature of gel-like mucins, the gel-like mucins absorbed water and swelled when in solution, resulting in a certain weight increase in the control group when finally weighed.
Among them, the experiment on temperature gradient was conducted in normal saline with pH=7.1, and results were shown in FIG. 4; in the pH experiment, the reaction system used was a solution system with different pH values based on 0.9% normal saline, and the reaction temperature was 37° C., and results are shown in FIG. 5; the reaction time for both the above-mentioned experiments was 6 h.
In the experiment regarding the degradation time, based on the temperature curve and pH curve, the experiment was carried out in PBS buffer with pH=7.2-7.4 at 37° C.

The test system of series [8] is miscellaneous protein derived from the patient's abdominal cavity. Description: Example 4: specificity, SDS-PAGE of miscellaneous proteins in homogenized patient mucins. In kind it is biochemical, human. The note with it: 2-10 ug protease, 100 μL homogenized mucins, 200 uL, 6 h. The procedure: Untreated mucins derived from clinical patients were briefly cleared to remove cellular tissue. 0.20 g of the above-mentioned mucins was accurately weighed and placed in 1 mL of PBS solution, 3-4 magnetic beads with a diameter of 1 mm were added, and then a resulting mixture was frozen and shaken at −30° C. for homogenization, so as to destroy the gel-like morphology of mucins, and release the miscellaneous protein from patients with mixed gel-like mucins. 100 μL of the homogenized mucins solution was added with 2-10 ug of protease (bromelain or serine protease EatA), respectively, and the reaction was performed in a 200 uL reaction system. After 6 h of reaction, samples were respectively taken for SDS-PAGE detection, and the total protein after fragmentation, which was the patient-derived miscellaneous protein in the abdominal cavity/abdominal mucins of the patient, was analyzed.

Series [9] deals with human patient-derived gel-like mucins. Kind of series: Example 5: in vivo degradation of gel-like mucins embedded in mouse abdominal cavity. On the set-up: species or system C57 male mice. The note with it: 80 ug injected 24 h after embedding 0.30 g mucins, sacrificed after 48 h. The procedure: The experiment included twenty C57 male mice aged 6-8 weeks. Five groups were set up in the experiment, including an experimental group (mucus+EatA, 5 mice), a control group (mucus+PBS, 5 mice), a bromelain group (mucus+bromelain, 5 mice), a negative sham operation group (minimal invasive open operation performed without adding mucins and enzyme, 3 mice), and a reference group (minimal invasive open operation performed with adding EatA protease, 2 mice). […] After 48 h, the mice were sacrificed, laparotomy was performed (results of abdominal examination after laparotomy were shown in FIG. 9) and the whole amount of gel-like mucins in the mice were removed, weighed using the method described in Example 2, counted and compared with the final amount of gel-like mucins remaining in three groups (experimental group (mucus+EatA), control group without enzyme (mucus+PBS) and bromelain group (mucus+bromelain)) to which gel-like mucins was added as a substrate, and results were shown in FIG. 8.

A short description of series [10]: Example 5: tolerability in mice after intraperitoneal injection. In kind it is in vivo, C57 male mice. Particulars: mice injected with enzyme.
For series [11], the system named is mucinous ovarian cancer (MOC) mucus. Kind of series: Example 6: viscosity of mucinous ovarian cancer mucus after incubation (rheometer). The note with it: 50 μg enzyme, 0.50 mL mucus, 750 uL, 37° C., 600 rpm, 20 h; control about 2000 mPa s. Format: biochemical, human. The procedure: (§2) This example carried out a degradation experiment on mucus from mucinous ovarian cancer and mucinous appendiceal adenocarcinoma using the serine protease EatA. 0.50 mL of the above-mentioned two new types of mucinous carcinoma mucus from clinical sources were weighed directly into test tubes, 50 μg of EatA serine protease dissolved in 0.25 mL of PBS buffer was added and then incubated in a total 750 uL reaction system at 37° C., 600 rpm for 20 h. For each type of mucinous carcinoma mucus sample, a control group was set up with only the addition of an equal volume of PBS, for a total of four experiments, each set up with three replicates. The viscosity of the incubated experimental samples was measured under an Anton Paar rheometer, probe model pp25, sample spacing 0.45 mm. After each sample was subjected to pre-shearing at a shearing frequency of 5 rad/s for 20 s, a total of 36 sample point data was obtained for each group of experiments by reading a total of 12 data at a shearing frequency of 10 rad/s every 5 s period for 60 s.

The subject of series [12] is mucinous appendiceal adenocarcinoma (MAA) mucus. Kind of series: Example 6: viscosity and appearance of mucinous appendiceal adenocarcinoma mucus after incubation. Format: biochemical, human. Particulars: 50 μg enzyme, 20 h. As to the method: as §2
Series [13] deals with mucus (sputum), mucous colon cancer and the like of patients with chronic obstructive pulmonary pneumonia. Kind of series: Applicant's related studies: degradation of COPD sputum and mucous colon cancer mucus. Format: biochemical, human. The note with it: relevant study results of the applicant.
Series [14] relates to gelatin, lactoferrin and CD43, BSA and BSM. Particulars: previous studies; cited from earlier work.

“serine protease EatA (serine protease EatA-EatAp with only the passenger domain) (enzyme)” showed a mass loss of gel-like mucins in series [1] of 90.3%. The viscosity of mucus (rheometer) in [2] worked out at 7 mPa s; in [3], 670 mPa s.

For elastase, in series [4], the “mucin degradation after mucus formation” value is given as “inefficient”.

“serine protease EatA: autotransporter serine protease from enterotoxigenic Escherichia coli H10407; passenger domain SEQ ID NO 2, full length SEQ ID NO 1”: in [5], the “degradation of gel-like mucins (observation)” value is reported as “obvious degradation of gel-like mucins”. The “mass loss of gel-like mucins” value with gel-like mucins [6] (40 μg enzyme, based on initial mass 0.1 g) came out at 90.33%; in the series on gel-like mucins [7] (20 μg enzyme, 0.10 g mucins, PBS pH=7.2-7.4, 37° C., 10.5 h), 80%. Moreover, in the series on gel-like mucins [7] (20 μg enzyme, 0.10 g mucins, 0.9% normal saline based, 37° C., 6 h), the “pH of maximum degradation efficiency” value is ~8. In the series with gel-like mucins [7] (20 μg enzyme, 0.10 g mucins, normal saline pH=7.1, 6 h), the “temperature of maximum enzyme activity” value was 34-37 °C. Moreover, the “optimal working environment: pH” value in the series with gel-like mucins [7] (degradation of gel-like mucins) is listed as 7-8. In addition, the “optimal working environment: reaction temperature” value with gel-like mucins [7] (degradation of gel-like mucins) is 34-37 °C. Besides, the “degradation of patient-derived miscellaneous proteins (SDS-PAGE)” value in [8] is reported as “did not degrade these proteins”. In addition, the “degradation efficiency of gel-like mucins in vivo” value in series [9] (based on initial 0.30 g) turned out to be 78%. Further, the “survival from the beginning of the experiment” value in series [10] was “more than 100 days”. Further, in series [10] (compared with non-injected group), the “adverse reactions, behavior and body weight” value was “without adverse reactions”. Besides, the “viscosity of mucus after incubation” value in series [11] is on record as “about 670 mPa s”; in series [12] (0.50 mL mucus, 750 uL, 37° C., 600 rpm, control about 1200 mPa s), “about 7 mPa s”. The “appearance of mucus sample solution after incubation” value in [12] (after standing) is listed as “becomes uniform”. For the same substance, in [13], the “degradation effect on mucus” value was “certain degradation effect”. Further, the “degradation of common human glycoproteins and non-human proteins” value in [14] is “did not degrade”.

With pancreatin, the “mucin degradation after mucus formation” value in series [4] is on record as “inefficient”.

For the substance bromelain [reference compound], the “mass loss of gel-like mucins (in words)” value with gel-like mucins [6] (increasing enzyme concentration) is “negative”. In series [8], the “degradation of patient-derived miscellaneous proteins (SDS-PAGE)” value is “the miscellaneous protein showed degradation”. Moreover, the “amount of gel-like mucins remaining” value in series [9] is recorded as “more than 0.30 g”.

These data come from patent US20250197837A1, “SERINE PROTEASE FOR SELECTIVELY DEGRADING MUCINS AND USE THEREOF” (priority 2022, published 2025).
